Measurements taken from PMC12485897, “Characterization of the thermophilic xylanase Fsa02490Xyn from the hyperthermophile Fervidibacter sacchari belonging to glycoside hydrolase family 10” (FEBS Open Bio, 2025).

Test system: T1, Fsa02490Xyn
T1 construct: TAT signal peptide removed (mature 430 residues, 48 kDa); N-terminal 6xHis tag, GB1 solubility tag and TEV site kept (~53 kDa expected); codon-optimized, pET21b, E. coli T7 Express; monomer
Experiment: para-nitrophenol release, absorbance […] nm; Lineweaver-Burk plot
Format: biochemical, Fervidibacter sacchari
Settings: pH 7.5, 90 °C, 11 min, 0.697 μM enzyme

## O=[N+]([O-])c1ccc(O[C@@H]2OC[C@@H](O[C@@H]3OC[C@@H](O)[C@H](O)[C@H]3O)[C@H](O)[C@H]2O)cc1 [pNPX2]
  Km: 2380 µM
